Data from patent publication US7781436B2 (Hoffmann-La Roche Inc., priority 2005, dated 2010).

target: T1, human V1a receptor (Homo sapiens, UniProt P37288); assay: human V1a receptor binding (3H-Vasopressin SPA, membranes of transfected HEK293 cells); settings: not given
T1 construct: expressed in transfected cells; host or cells: HEK293 cells, transiently transfected; membranes prepared
Protocol: The human V1a receptor was cloned by RT-PCR from total human liver RNA. The coding sequence was subcloned in an expression vector after sequencing to confirm the identity of the amplified sequence. […] Cell membranes were prepared from HEK293 cells transiently transfected with the expression vector and grown in 20 liter fermenters with the following protocol.
50 g of cells are resuspended in 30 ml freshly prepared ice cold Lysis buffer (50 mM HEPES, 1 mM EDTA, 10 mM MgCl2 adjusted to pH=7.4+ complete cocktail of protease inhibitor (Roche Diagnostics)). Homogenized with Polytron for 1 min and sonicated on ice for 2×2 minutes at 80% intensity (Vibracell sonicator). The preparation is centrifuged 20 min at 500 g at 4° C., the pellet is discarded and the supernatant centrifuged 1 hour at 43,000 g at 4° C. (19'000 rpm). The pellet is resuspended in 12.5 ml Lysis buffer+12.5 ml Sucrose 20% and homogenized using a Polytron for 1-2 min. The protein concentration is determined by the Bradford method, and aliquots are stored at −80° C. until use. For binding studies 60 mg Yttrium silicate SPA beads (Amersham) are mixed with an aliquot of membrane in binding buffer (50 mM Tris, 120 mM NaCl, 5 mM KCl, 2 mM CaCl2, 10 mM MgCl2) for 15 minutes with mixing. 50 ul of bead/membrane mixture is then added to each well of a 96 well plate, followed by 50 ul of 4 nM 3H-Vasopressin (American Radiolabeled Chemicals). For total binding measurement 100 ul of binding buffer are added to the respective wells, for non-specific binding 100 ul of […] cold vasopressin and for compound testing 100 ul of a serial dilution of each compound in 2% DMSO. The plate is incubated 1 h at room temperature, centrifuged 1 min at 1000 g and counted on a Packard Top-Count. Non-specific binding counts are subtracted from each well, and data is normalized to the maximum specific binding set at 100%. To calculate an IC 50 the curve is fitted using a non-linear regression model (XLfit) and the Ki is calculated using the Cheng-Prussoff equation.

T1 sequence (P37288 whole entry): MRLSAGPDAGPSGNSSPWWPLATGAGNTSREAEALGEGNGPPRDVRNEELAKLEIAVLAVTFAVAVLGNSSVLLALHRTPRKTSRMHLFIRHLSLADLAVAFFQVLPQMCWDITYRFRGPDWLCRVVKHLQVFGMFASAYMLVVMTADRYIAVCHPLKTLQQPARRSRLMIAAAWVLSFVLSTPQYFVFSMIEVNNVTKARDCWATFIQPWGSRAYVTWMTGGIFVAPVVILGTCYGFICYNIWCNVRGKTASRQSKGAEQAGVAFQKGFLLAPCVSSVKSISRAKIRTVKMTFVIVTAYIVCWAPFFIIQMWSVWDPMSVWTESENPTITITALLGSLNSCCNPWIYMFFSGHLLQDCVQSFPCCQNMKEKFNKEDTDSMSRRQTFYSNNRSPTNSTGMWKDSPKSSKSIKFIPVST

| Structure (SMILES) | Ki |
| --- | --- |
| COc1ccccc1C1(C#N)CCN(C(=O)c2cn(CC(=O)N(C)C)c3cc(Cl)ccc23)CC1 [Example 60, 2-{6-Chloro-3-[4-cyano-4-(2-methoxy-phenyl)-piperidine-1-carbonyl]-indol-1-yl}-N,N-dimethyl-acetamide] | 8 nM |
| CNC(=O)Cn1cc(C(=O)N2CCN(c3ccccc3F)CC2)c2ccc(Cl)cc21 [Example 176, 2-{6-Chloro-3-[4-(2-fluoro-phenyl)-piperazine-1-carbonyl]-indol-1-yl}-N-methyl-acetamide] | 8 nM |
| CNC(=O)Cn1cc(C(=O)N2CCN(c3nccc4sccc34)CC2)c2ccc(Cl)cc21 [Example 224, 2-[6-Chloro-3-(4-thieno[3,2-c]pyridin-4-yl-piperazine-1-carbonyl)-indol-1-yl]-N-methyl-acetamide] | 27 nM |
| CN1CCC[C@H]1Cn1cc(C(=O)N2CCN(c3ccccc3F)CC2)c2ccc(Cl)cc21 [Example 203, [6-Chloro-1-((S)-1-methyl-pyrrolidin-2-ylmethyl)-1H-indol-3-yl]-[4-(2-fluoro-phenyl)-piperazin-1-yl]-methanone] | 2 nM |
| CN(C)C(=O)Cn1cc(C(=O)N2CCN(c3ccc(F)cc3F)CC2)c2ccc(Cl)cc21 [Example 205, 2-{6-Chloro-3-[4-(2,4-difluoro-phenyl)-piperazine-1-carbonyl]-indol-1-yl}-N,N-dimethyl-acetamide] | 10 nM |
| CN(CCn1cc(C(=O)N2CCN(c3ccccc3F)CC2)c2ccc(Cl)cc21)S(C)(=O)=O [Example 220] | 17 nM |
| CC(=O)NCCn1cc(C(=O)N2CCN(c3ccccc3F)CC2)c2ccc(Cl)cc21 [Example 217, N-(2-{6-Chloro-3-[4-(2-fluoro-phenyl)-piperazine-1-carbonyl]-indol-1-yl}-ethyl)-acetamide] | 21 nM |
| CN(C)C(=O)Cn1cc(C(=O)N2CCC(C#N)(c3ccccc3F)CC2)c2ccc(Cl)cc21 [Example 61, 2-{6-Chloro-3-[4-cyano-4-(2-fluoro-phenyl)-piperidine-1-carbonyl]-indol-1-yl}-N,N-dimethyl-acetamide] | 13 nM |
| CN(C)C(=O)Cn1cc(C(=O)N2CCC(c3ccccc3OC(F)(F)F)CC2)c2ccc(Cl)cc21 [Example 95, 2-{6-Chloro-3-[4-(2-trifluoromethoxy-phenyl)-piperidine-1-carbonyl]-indol-1-yl}-N,N-dimethyl-acetamide] | 13 nM |
| CN1CCC[C@@H]1Cn1cc(C(=O)N2CCN(c3ccccc3F)CC2)c2ccc(Cl)cc21 [Example 215, [6-Chloro-1-((R)-1-methyl-pyrrolidin-2-ylmethyl)-1H-indol-3-yl]-[4-(2-fluoro-phenyl)-piperazin-1-yl]-methanone] | 6 nM |
| CN(C)C(=O)Cn1cc(C(=O)N2CCC(c3ccncc3)CC2)c2ccc(Cl)cc21 [Example 122, 2-[6-Chloro-3-(3,4,5,6-tetrahydro-2H-[4,4′]bipyridinyl-1-carbonyl)-indol-1-yl]-N,N-dimethyl-acetamide] | 10 nM |
| O=C(c1cn(C[C@@H]2CCCN2)c2cc(Cl)ccc12)N1CCN(c2ccccc2F)CC1 [Example 200, (6-Chloro-1-(S)-1-pyrrolidin-2-ylmethyl-1H-indol-3-yl)-[4-(2-fluoro-phenyl)-piperazin-1-yl]-methanone] | 21 nM |
| O=C(c1cn(C[C@H]2CCCN2)c2cc(Cl)ccc12)N1CCN(c2ccccc2F)CC1 [Example 214, (6-Chloro-1-(R)-1-pyrrolidin-2-ylmethyl-1H-indol-3-yl)-[4-(2-fluoro-phenyl)-piperazin-1-yl]-methanone] | 16 nM |
| CN(C)CCn1cc(C(=O)N2CCC(c3cccc4c3OCC4)CC2)c2ccc(Cl)cc21 [Example 87, [6-Chloro-1-(2-dimethylamino-ethyl)-1H-indol-3-yl]-[4-(2,3-dihydro-benzofuran-7-yl)-piperidin-1-yl]-methanone] | 4 nM |

same assay, conditions: displacement of 4 nM 3H-Vasopressin, HEK293 cell membranes, Ki by Cheng-Prussoff from IC50; read-out: Ki

| Structure (SMILES) | Ki |
| --- | --- |
| CS(=O)(=O)NCCn1cc(C(=O)N2CCN(c3ccccc3F)CC2)c2ccc(Cl)cc21 [Example 218, N-(2-{6-Chloro-3-[4-(2-fluoro-phenyl)-piperazine-1-carbonyl]-indol-1-yl}-ethyl)-methanesulfonamide] | 16 nM |
| CC(C)Oc1ccccc1C1CCN(C(=O)c2cn(CC(=O)N3CCN(C)CC3)c3cc(Cl)ccc23)CC1 [Example 67, 2-{6-Chloro-3-[4-(2-isopropoxy-phenyl)-piperidine-1-carbonyl]-indol-1-yl}-1-(4-methyl-piperazin-1-yl)-ethanone] | 5 nM |
| CN(C)C(=O)Cn1cc(C(=O)N2CCC(c3ccccc3F)CC2)c2ccc(Cl)cc21 [Example 114, 2-{6-Chloro-3-[4-(2-fluoro-phenyl)-piperidine-1-carbonyl]-indol-1-yl}-N,N-dimethyl-acetamide] | 3 nM |
| CN(C)C(=O)Cn1cc(C(=O)N2CCN(c3ccccc3F)CC2)c2ccc(Cl)cc21 [Example 174, 2-{6-Chloro-3-[4-(2-fluoro-phenyl)-piperazine-1-carbonyl]-indol-1-yl}-N,N-dimethyl-acetamide] | 3 nM |
| CN1CCN(C(=O)Cn2cc(C(=O)N3CCN(c4ccccc4F)CC3)c3ccc(Cl)cc32)CC1 [Example 172, 2-{6-Chloro-3-[4-(2-fluoro-phenyl)-piperazine-1-carbonyl]-indol-1-yl}-1-(4-methyl-piperazin-1-yl)-ethanone] | 10 nM |
| COc1cccc(OC)c1C1CCN(C(=O)c2cn(CC(=O)N3CCN(C)CC3)c3cc(Cl)ccc23)CC1 [Example 55, 2-{6-Chloro-3-[4-(2,6-dimethoxy-phenyl)-piperidine-1-carbonyl]-indol-1-yl}-1-(4-methyl-piperazin-1-yl)-ethanone] | 2 nM |
| O=C(Cn1cc(C(=O)N2CCN(c3ccccc3F)CC2)c2ccc(Cl)cc21)N1CCNCC1 [Example 177, 2-{6-Chloro-3-[4-(2-fluoro-phenyl)-piperazine-1-carbonyl]-indol-1-yl}-1-piperazin-1-yl-ethanone] | 8 nM |
| CCOc1ccccc1N1CCN(C(=O)c2cn(CC(=O)N(C)C)c3cc(Cl)ccc23)CC1 [Example 152, 2-{6-Chloro-3-[4-(2-ethoxy-phenyl)-piperazine-1-carbonyl]-indol-1-yl}-N,N-dimethyl-acetamide] | 14 nM |
| COc1ccccc1C1CCN(C(=O)c2cn(CC(=O)N(C)C)c3cc(Cl)c(Cl)cc23)CC1 [Example 80, 2-{5,6-Dichloro-3-[4-(2-methoxy-phenyl)-piperidine-1-carbonyl]-indol-1-yl}-N,N-dimethyl-acetamide] | 6 nM |
| COc1ccccc1C1CCN(C(=O)c2cn(CC(=O)N3CCN(C)CC3)c3cc(Cl)ccc23)CC1 [Example 58, 2-{6-Chloro-3-[4-(2-methoxy-phenyl)-piperidine-1-carbonyl]-indol-1-yl}-1-(4-methyl-piperazin-1-yl)-ethanone] | 9 nM |
| NC(=O)Cn1cc(C(=O)N2CCN(c3ccccc3F)CC2)c2ccc(Cl)cc21 [Example 175, 2-{6-Chloro-3-[4-(2-fluoro-phenyl)-piperazine-1-carbonyl]-indol-1-yl}-acetamide] | 32 nM |
| CNC(=O)Cn1cc(C(=O)N2CCN(c3ncccc3C(F)(F)F)CC2)c2ccc(Cl)cc21 [Example 196, 2-{6-Chloro-3-[4-(3-trifluoromethyl-pyridin-2-yl)-piperazine-1-carbonyl]-indol-1-yl}-N-methyl-acetamide] | 26 nM |
| CN(C)C(=O)Cn1cc(C(=O)N2CCC(c3ccccc3C(F)(F)F)CC2)c2ccc(Cl)cc21 [Example 102, 2-{6-Chloro-3-[4-(2-trifluoromethyl-phenyl)-piperidine-1-carbonyl]-indol-1-yl}-N,N-dimethyl-acetamide] | 7 nM |
| COc1cccc(OC)c1C1CCN(C(=O)c2cn(Cc3ccnc(C)c3)c3cc(Cl)ccc23)CC1 [Example 63, [6-Chloro-1-(2-methyl-pyridin-4-ylmethyl)-1H-indol-3-yl]-[4-(2,6-dimethoxy-phenyl)-piperidin-1-yl]-methanone] | 2 nM |
| COc1ccccc1N1CCN(C(=O)c2cn(CCN(C)C)c3cc(Cl)ccc23)CC1 [Example 163, [6-Chloro-1-(2-dimethylamino-ethyl)-1H-indol-3-yl]-[4-(2-methoxy-phenyl)-piperazin-1-yl]-methanone] | 22 nM |
| COc1ccccc1N1CCN(C(=O)c2cn(CC(=O)N(C)C)c3cc(Cl)ccc23)CC1 [Example 151, 2-{6-Chloro-3-[4-(2-methoxy-phenyl)-piperazine-1-carbonyl]-indol-1-yl}-N,N-dimethyl-acetamide] | 14 nM |
| COc1cccc(OC)c1C1CCN(C(=O)c2cn(CC(=O)NCCN)c3cc(Cl)ccc23)CC1 [Example 84, N-(2-Amino-ethyl)-2-{6-chloro-3-[4-(2,6-dimethoxy-phenyl)-piperidine-1-carbonyl]-indol-1-yl}-acetamide] | 11 nM |
